According to paper PMC6226472, “Cardol triene inhibits dengue infectivity by targeting kl loops and preventing envelope fusion” (Scientific Reports, 2018):
Like-named read-outs stand apart in the source and are kept apart here.

Experiments:
[1] = Cytotoxic concentration (CC50), MTS; type: cell-based; details: African green monkey, Vero cells
Experimental: Cytotoxic concentrations (CC50) were also studied using Vero cells. Briefly, the 10^4 cells were seeded into each well of 96-well plates. After an overnight incubation, phenolic lipids were serially diluted in DMSO to the final concentrations as follows; 25, 50, 100, 200, 300, 400, and 500 µM. Each concentration was performed in quadruplicates. DMSO at 1% was used as a mock treatment referring to 100% cell viability. Cells were incubated for 48 h before cell viability was accessed using CellTiler 96® Aqueous One Solution Cell Proliferation Assay kit (Promega, Wisconsin, USA). Non-linear regression analysis was used to determine cytotoxic concentrations (CC50) of each experiment.

K562 = tested on: K562; design: method as in PMID 25726174; details: cited from earlier work
DENV2 NGC = experiment: Efficacy study (EC50) in DENV2 infected Vero cells, plaque titration; type: cell-based, Dengue virus; details: for EC50: DENV2 NGC (M.O.I. of 0.1) infected Vero cells, plaque titration, 3 days; for TI (therapeutic index, CC50/EC50): Vero CC50 / DENV2 EC50
Experimental: Next, we studied the efficacies (EC50) of the phenolic lipid homologues against DENV2 infectivity in Vero cells. Briefly, compounds at 10 different concentrations were added to DENV2-infected Vero cells (M.O.I. of 0.1) during and post infection and the viral inhibition was determined by plaque titration. […] Noted that anacardic acids were major components of CNSL extracts and all homologues were purified directly from CNSL itself.
Next, each homologue was analyzed for effective concentration (EC50). Vero (5 × 10^4) cells were seeded, and infected with DENV2 (M.O.I. of 0.1) as previously described. Phenolic lipid mixtures and homologues were serially diluted in DMSO to the final concentrations as follows; 0, 0.5, 1, 1.5, 2, 2.5, 5, 7.5, 10, 25, and 50 µM. DMSO at the concentration of 1% was used as a mock treatment referring to 100% infection. Infected cells were treated with the designated compounds during and post infection. Supernatants were collected at 3 days after infection for analysis of virion production by plaque titration. Non-linear regression analysis was used to determine the effective concentrations. […] The therapeutic index (TI) was a ration of CC50/EC50 of the compound.

hepatitis C virus (HCV) = tested on: hepatitis C virus (HCV); design: method as in PMID 25658101; details: cited from earlier work
AGS = tested on: AGS; design: method as in PMID 25726174; details: cited from earlier work
[2] = tested on: BHK-21/DENV2 replicon cells; experiment: Replicon inhibition study, RT-qPCR of DENV2 NS1; type: cell-based, Dengue virus; details: 72 h
Experimental: We analyzed the replication inhibition using BHK-21/DENV2 replicon cells stably expressed the non-structural proteins. Cardol triene at 10 µM and 20 µM were added to the replicon cells for 72 h and the replication inhibition was accessed by RT-qPCR of DENV2 NS1. Ribavirin, a known inhibitor of flaviviral replication, was used as a positive inhibition control. […] Replicon cell viability under cardol triene treatment was also analyzed using an MTS assay. […] Therefore, we concluded that cardol triene inhibited DENV RNA replicon replication, potentially in dose-dependent manner.
BHK-21 (5 × 10^4) cells expressing DENV-2 replicon (BHK-21/DENV2)[44] were seeded as previously described. Cardol triene at 10 µM and 20 µM, DMSO, and ribavirin (TargetMol, USA) were added to the replicon cells and incubated at 37 °C for 3 days. Cells lysates were collected and viral RNA was quantified by RT-qPCR as previously described. Data were reported as percent inhibition compared with ribavirin. Three biological replicates were performed and results were means and SEM of all replicates.

Solubility in DMSO = type: physicochemical
[3] = Dengue virus, 72 h, read-out: EC50

SMILES | CC50 at 48 h [1] | EC50 (DENV2 NGC; [3]) | TI (therapeutic index, CC50/EC50) (DENV2 NGC) | other results
CCCCCCCCCCCCCCCc1cccc(O)c1C(=O)O [Anacardic acid saturated, 6-pentadecylsalicylic acid] | 66.3 ± 1.58 µM | 4.31 ± 1.17 µM | 15.39 | CC50 (K562): 25.4 µM; EC50 (hepatitis C virus (HCV)): 7.25 µM; CC50 (AGS): 41.6 µM
NC(=O)c1ncn([C@@H]2O[C@H](CO)[C@@H](O)[C@H]2O)n1 [ribavirin, reference compound] |  |  |  | DENV2 RNA inhibition ([2]; 10 µM): 98.42 ± 0.68%; DENV2 RNA inhibition ([2]; 20 µM): 98.09 ± 0.72%
CCCCCCCCCCCCCCCc1cccc(O)c1 [Cardanol saturated] | 43.5 ± 1.1 µM | 5.89 ± 2.83 µM | 7.39 | 
C=CC/C=C/C/C=C/CCCCCCCc1cccc(O)c1 [Cardanol triene, 3-[8(Z), 11(Z), 14-pentadecatrienyl]phenol] |  |  |  | solubility in DMSO (Solubility in DMSO): insoluble
C=CC/C=C/C/C=C/CCCCCCCc1cccc(O)c1C(=O)O [Anacardic acid triene, 6-[8(Z), 11(Z), 14-pentadecatrienyl]salicylic acid] | 115 ± 14.1 µM | 7.48 ± 2.14 µM | 15.38 | 
CCC/C=C/C/C=C/CCCCCCCc1cccc(O)c1C(=O)O [Anacardic acid diene, 6-[8(Z), 11(Z)-pentadecadienyl]salicylic acid] | 112 ± 8.57 µM |  |  | EC50 (DENV2 NGC): Not inhibited
CCCCCC/C=C\CCCCCCCc1cccc(O)c1C(=O)O [Anacardic acid monoene, 6-[8(Z)-pentadecenyl]salicylic acid] | 74 ± 0.85 µM | 12.6 ± 0.84 µM | 5.88 | 
CCCCCCCCCCCCCCCc1cc(O)cc(O)c1 [Cardol saturated] | 58.75 ± 0.43 µM | 12.7 ± 0.67 µM | 4.62 | 
